Source: patent publication US20170165240A1, “NEW STRATEGIES FOR TREATING MELANOMA” (Université Libre de Bruxelles, priority 2014, published 2017)
Entries after “also recorded” stand apart in the source; their conditions may differ. Like-named read-outs stand apart in the source and are kept apart here. Values belong to the compound of their own block, whether it stands above or below them.

Key:
[1] = test system: MM043 melanoma cell line; assay: Cell proliferation, crystal violet assay, MM043; conditions: for IC10 / CI (combination index): MM043; for IC10: 10% growth reduction; for CI (combination index): PI3K inhibitor at IC10 in combination with vemurafenib
[2] = test system: MM074-R melanoma cell line; conditions: 10% growth reduction
[3] = test system: MM074 melanoma cell line; assay: Cell proliferation, crystal violet assay, MM074; conditions: for IC10: 10% growth reduction
[4] = test system: key proteins of MAPK and p53/PI3K/AKT pathways; assay: Western blot analysis, MM074 cells; assay type: cell-based, human; conditions: MM074, Western blotting
Description: (§1) Cells were plated in Petri dishes (3×10^6 cells/dish) in culture medium. […] Then, cells were exposed or not to effectors for 30 minutes or 24 hours. Cells were lysed using a detergent cocktail (M-PER Mammalian Extraction Buffer) supplemented with protease inhibitors (Halt Protease Inhibitor Cocktail) and phosphatase inhibitors (Halt Phosphatase Inhibitor Cocktail) (all from Pierce, Rockford, Ill., USA). Protein concentrations were determined by the BCA Protein Assay (Pierce) using bovine serum albumin as the standard. Equal amounts of extracted proteins (35 μg) were subjected to 10 or 12% SDS-PAGE and electrotransferred onto nitrocellulose membranes using iBlot® Dry Blotting System (Invitrogen, Life Technologies, Gent, Belgium). Immunodetections were performed using antibodies raised against ^V600EBRAF (VE1, 1/1000) (from Spring Bioscience, Pleasanton, Calif., USA), pBRAF (Ser 445) (1/1000), pCRAF (Ser 338) (1/1000), CRAF (1/1000), p110α (C73F8, 1/1000), PTEN (138G6, 1/1000), pAKT (Ser 473) (D9E, 1/500), AKT (40D4, 1/1000), p21 (12D1, 1/1000) and p53 Ser15 (16G8) (all from Cell Signaling Technology, Danvers, Mass., USA), BRAF (F-7, 1/200), pERK (Tyr 204) (E-4, 1/1000), ERK2 (C-14, 1/2000), p53 (DO-1, 1/200) and MDM2 (SMP14, 1/200) (all from Santa Cruz Biotechnology, Santa Cruz, Calif., USA), and MDM4 (8C6, 1/1000), […]-actin (C4, 1/5000) (from Millipore, Temecula, Calif., USA). Peroxidase-labeled anti-rabbit IgG antibody (1/5000) or peroxidase-labeled anti-mouse IgG antibody (1/5000) (both from Amersham Pharmacia Biotech, Roosendaal, The Netherlands) were used as secondary reagents to detect corresponding primary antibodies. […] Immunostaining signals were digitalized with a PC-driven LAS-3000 CCD camera (Fujifilm, Tokyo, Japan), using a software specifically designed for image acquisition (Image Reader, Raytest®, Straubenhardt, Germany). Immunoreactive band intensities were quantified using the software AIDA® Image Analyser 3.45 (Raytest®).

[5] = test system: key proteins of MAPK and p53/PI3K/AKT pathways; assay: Western blot analysis, MM074-R cells; assay type: cell-based, human; conditions: Western blotting, 50 and 75 μM for 24 hours
Description: as §1

[6] = test system: key proteins of MAPK and p53/PI3K/AKT pathways; assay: Western blot analysis, MM043 cells; assay type: cell-based, human; conditions: MM043, Western blotting
Description: as §1

[7] = test system: MM043 xenografts; assay: Human melanoma xenografts, MM043; assay type: in vivo, mice
Description: (§2) Mice were injected subcutaneously (right and left flank) with 5×10^6 MM074 (vemurafenib sensitive), MM043 (with intrinsic resistance) or MM074-R cells (with acquired resistance) in 200 μl of 50% Matrigel (from Trevigen, Gaithersburg, Md.) in saline. When tumors reached 200 mm^3, mice were randomized into groups of 8 and daily intraperitoneally injected with vehicle, 45 mg/kg vemurafenib, 50 mg/kg PRIMA-1^Met or vemurafenib plus PRIMA-1^Met. […] Tumor volumes were calculated using the formula (L×W×W)/2 (Ji Z et al., 2013, Clin Cancer Res Off J Am Assoc Cancer Res. 19(16):4383-4391), in which L is the length and W is the width as measured with a vernier calliper.
(§3) The sensitive melanoma cells (MM074) xenografts were used as control. After subcutaneous cell injection, tumor growth was monitored to reach volumes of about 200 mm^3.

[8] = test system: MM070 melanoma cell line; assay: Cell proliferation, crystal violet assay, MM070; assay type: cell-based; conditions: Homo sapiens, V600E, read-out: IC50 (μM) vemurafenib
Description: (§4) Cells were distained under running tap water and subsequently lysed with 0.2% Triton X-100 for 90 minutes (v/v in water).
(§5) The IC50 and IC10 values represent the inhibitory concentrations producing, respectively, 50% and 10% growth reduction and were calculated from dose response curves using GraphPad Prism software (GraphPad Software, La Jolla, Calif., USA).

[9] = test system: MM074-R melanoma cell line; assay: cells; conditions: Homo sapiens, read-out: IC50 (μM) vemurafenib
[10] = test system: MM054 melanoma cell line; assay: Cell proliferation, crystal violet assay, MM054; assay type: cell-based; conditions: Homo sapiens, V600E, read-out: IC50 (μM) vemurafenib
Description: as §4, §5
(§6) CI values between 0.9 and 1.1 indicates an additive effect; values between 0.7 and 0.9, a moderate synergism; values lower than 0.7, a strong synergism; and antagonism is represented by CI values higher than 1.1.

[11] = test system: MM074 melanoma cell line; assay: Apoptosis determination (annexin V), MM074; assay type: cell-based, human
[12] = test system: MM034 melanoma cell line; assay: Cell proliferation, crystal violet assay, MM034; assay type: cell-based; conditions: Homo sapiens, V600E, read-out: IC50 (μM) vemurafenib
Description: as §4, §5

[13] = test system: MM050 melanoma cell line; assay: Cell proliferation, crystal violet assay, MM050; assay type: cell-based; conditions: Homo sapiens, V600E, read-out: IC50 (μM) vemurafenib
Description: as §4, §5

[14] = test system: MM043 melanoma cell line; assay: Apoptosis determination (annexin V), MM043; assay type: cell-based, human
[15] = test system: MM074 xenografts; assay: Human melanoma xenografts, MM074; assay type: in vivo, mice
Description: as §2, §3

[16] = test system: MM032 melanoma cell line; assay: Cell proliferation, crystal violet assay, MM032; assay type: cell-based; conditions: Homo sapiens, V600E, read-out: IC50 (μM) vemurafenib
Description: as §4, §5, §6

[17] = test system: MM029 melanoma cell line; assay: Cell proliferation, crystal violet assay, MM029; assay type: cell-based; conditions: Homo sapiens, V600K, read-out: IC50 (μM) vemurafenib
Description: as §4, §5, §6

[18] = test system: MM133 melanoma cell line; assay: Cell proliferation, crystal violet assay, MM133; assay type: cell-based; conditions: Homo sapiens, V600K, read-out: IC50 (μM) vemurafenib
Description: as §4, §5, §6

[19] = test system: ERK and AKT phosphorylation; assay: Western blot, ERK and AKT phosphorylation in panel of vemurafenib-resistant lines; assay type: cell-based, human
Description: Representative Western blots illustrating the evolution of (A) ERK and (B) AKT phosphorylation in melanoma cells exposed to increasing concentrations of vemurafenib (0.1, 1 and 10 μM) for 24 hours. Ratio of phosphorylated protein over total protein were calculated from densitometry evaluation.
Cells were plated in Petri dishes (3×10^6 cells/dish) in culture medium. […] Then, cells were exposed or not to effectors for 30 minutes or 24 hours. Cells were lysed using a detergent cocktail (M-PER Mammalian Extraction Buffer) supplemented with protease inhibitors (Halt Protease Inhibitor Cocktail) and phosphatase inhibitors (Halt Phosphatase Inhibitor Cocktail) (all from Pierce, Rockford, Ill., USA). Protein concentrations were determined by the BCA Protein Assay (Pierce) using bovine serum albumin as the standard. Equal amounts of extracted proteins (35 μg) were subjected to 10 or 12% SDS-PAGE and electrotransferred onto nitrocellulose membranes using iBlot® Dry Blotting System (Invitrogen, Life Technologies, Gent, Belgium). […] Immunostaining signals were digitalized with a PC-driven LAS-3000 CCD camera (Fujifilm, Tokyo, Japan), using a software specifically designed for image acquisition (Image Reader, Raytest®, Straubenhardt, Germany). Immunoreactive band intensities were quantified using the software AIDA® Image Analyser 3.45 (Raytest®).

[20] = test system: panel of V600E/K BRAF melanoma cell lines; assay: Cell proliferation and apoptosis in panel of V600E/K BRAF melanoma cell lines; conditions: Homo sapiens
[21] = test system: melanoma; conditions: ipilimumab only group, 9 of 15 responders; cited from earlier work
[22] = Homo sapiens, read-out: IC50 (μM) vemurafenib

Compound: O=c1cc(N2CCOCC2)oc2c(-c3ccccc3)cccc12 [LY294002]
- IC10 [1]: 5000 nM
- CI (combination index) [1]: 0.56
- IC10 [2]: 5000 nM
- IC10 ([3]; MM074): 5000 nM

Compound: COCC1(CO)C(=O)C2CCN1CC2 (centres unmarked) [PRIMA-1^Met, 2-hydroxymethyl-2-methoxymethylazabicyclo[2.2.2]octan-3-one]
- AKT phosphorylation [4]: inhibition of p110α expression and AKT phosphorylation
- PTEN expression [4]: increase in PTEN levels
- p110α expression [4]: inhibition of p110α expression and AKT phosphorylation
- IC10 [2]: 40000 nM
- AKT phosphorylation [5]: decrease of p110α expression and AKT phosphorylation
- p21 and PTEN levels [5]: upregulation of p21 and PTEN levels
- p53 expression and phosphorylation [5]: dose-dependent increase of p53 expression and phosphorylation
- p110α expression [5]: decrease of p110α expression and AKT phosphorylation
- AKT phosphorylation [6]: inhibited AKT phosphorylation; also recorded: inhibition of p110α expression and AKT phosphorylation
- PTEN expression [6]: stimulated PTEN expression; also recorded: increase in PTEN levels
- p53 expression / p53 pathway [6]: restored p53 expression; also recorded: activation of the p53 pathway
- p110α expression [6]: inhibition of p110α expression and AKT phosphorylation
- mean tumor volume ([7]; after 20 days of treatment): 1080 mm^3

- IC50 [8]: 0.05 µM
- IC50 [9]: 20 µM
- IC50 [10]: 40 µM
- IC50 [1, 22]: 20 µM
- IC50 [3, 22]: 0.1 µM
- IC50 [12]: 0.1 µM
- IC50 [13]: 0.1 µM
- IC50 [16]: 2 µM
- IC50 [17]: 30 µM
- IC50 [18]: 2 µM
- IC50 ([20]; read-out: IC50, cell lines found to be resistant): > 10000 nM
- IC50 ([20]; read-out: IC50, cell lines found to be sensitive): ≤ 2000 nM
Compound: CCCS(=O)(=O)Nc1ccc(F)c(C(=O)c2c[nH]c3ncc(-c4ccc(Cl)cc4)cc23)c1F [vemurafenib, N-(3-{[5-(4-chlorophenyl)-1H-pyrrolo[2,3-b]pyridin-3-yl]carbonyl}-2,4-difluorophenyl)propane-1-sulfonamide]
- AKT phosphorylation [4]: strongly inhibited
- PTEN expression [4]: concentration-dependent increase of PTEN expression
- ERK phosphorylation (pERK) ([4]; 24 hours): similarly inhibited
- apoptosis (annexin V-positive cells) ([11]; MM074, 2 days): induces apoptosis
- apoptosis (annexin V-positive cells) ([14]; MM043, 2 days): no apoptosis is detected
- average tumor volume ([15]; 28 days, 45 mg/kg daily intraperitoneally): ~190 mm3
- tumor growth ([15]; as of day 4 after starting treatment): inhibited tumor growth
- pERK ([19]; all resistant lines, 24 hours): similarly inhibited in a concentration-dependent manner
- pAKT ([19]; resistant lines MM032, MM043 and MM133, 24 hours): unaffected in three out of five resistant lines
- AKT phosphorylation [6]: neither AKT phosphorylation nor PTEN expression were affected
- PTEN expression [6]: neither AKT phosphorylation nor PTEN expression were affected
- ERK phosphorylation (pERK) ([6]; 24 hours): similarly inhibited
- tumor growth ([7]; 45 mg/kg vemurafenib and/or 50 mg/kg PRIMA-1^Met daily IP): did not significantly affected tumor growth
- mean tumor volume ([7]; after 28 days of treatment): ~1130 mm^3

Compound: ipilimumab: an antibody raised against CTLA-4 molecule on T-cells
- responders who maintained an objective response for at least 2 years [21]: 60%

Compound: COc1ccc(-c2cc3c(C)nc(N)nc3n([C@H]3CC[C@H](OCCO)CC3)c2=O)cn1 [PF-04691502]
- AKT phosphorylation [4]: inhibited
- IC10 [1]: 100 nM
- CI (combination index) [1]: 0.64
- IC10 [2]: 100 nM
- IC10 ([3]; MM074): 100 nM
- cell proliferation ([3]; MM074, PI3K inhibitor at IC10 in combination with increasing concentrations of vemurafenib): not significantly affected
- apoptosis (annexin V-positive cells) ([11]; MM074, PI3K inhibitor at IC10 in combination with vemurafenib, 2 days): increased
- apoptosis (annexin V-positive cells) ([14]; MM043, PI3K inhibitor at IC10 in combination with vemurafenib, 2 days): significant increase in apoptosis
- AKT phosphorylation [6]: inhibited
